From PMC4732513, “Efficient one-pot synthesis, molecular docking and in silico ADME prediction of bis-(4-hydroxycoumarin-3-yl) methane derivatives as antileishmanial agents” (EXCLI Journal, 2015)
Converted amounts (≈) assume the structure as drawn.

System: L. donovani promastigotes (NHOM/IN/80/DD8)
Assay: In vitro antileishmanial activity (modified MTT assay)
Assay type: cell-based, Leishmania donovani
Conditions: Figure 3
Protocol: The assay for in vitro antileishmanial activity on culture of L. donovani promastigotes (NHOM/IN/80/DD8) was carried out in 96-well tissue culture plates. The promastigotes culture was maintained at 22 ^οC in modified RPMI 1640 pH 7.4 (without phenol red) with 10 % FCS medium. Drug dilutions were prepared in DMSO and appropriate concentration of each drug was used in triplicate. Plates were incubated at 22 °C for 72 h and evaluated using modified MTT assay, where the conversion of 3-(4,5-dimethylthiazol-2-yl)-2,5-diphenyltetrazolium bromide (MTT) to formazan by mitochondrial enzymes served as an indicator of cell viability and the amount of formazan produced was directly proportional to the number of metabolically active cells. Accordingly, absorbance at 492 nm represented the number of live cells. The concentration that decreased cell growth by 50 % (IC50) was determined by graphic interpolation. Pentamidine and sodium stibogluconate were used as standard drugs (Dutta et al., 2005[11]).
The assay for in vitro antileishmanial activity was carried out on cultures of L. donovani promastigotes. The concentration that decreased cell growth by 50 % (IC50) was determined by graphic interpolation and data obtained depicted in Table 3(Tab. 3).

`CN(C)c1ccc(C(c2c(O)c3ccccc3oc2=O)c2c(O)c3ccccc3oc2=O)cc1` [3l, 3,3'-((4-(Dimethylamino)phenyl)methylene)bis(4-hydroxy-2H-chromen-2-one)] was tested, and the “Effect on L. donovani promastigotes (viability, morphology)” value was “organisms lost its viability as seen by irregular shape morphology”.

Same assay, conditions: L. donovani promastigotes, 72 h at 22 °C, modified MTT, graphic interpolation

Compared with `COc1ccc(C(c2c(O)c3ccccc3oc2=O)c2c(O)c3ccccc3oc2=O)c(OC)c1` [3g], `O.O.O.O.O.O.O.O.O.O=C([O-])[C@@H]1[O][Sb](=[O])([O][Sb]2(=[O])[O][C@H]([C@H](O)CO)[C@H](O)[C@H](C(=O)[O-])[O]2)[O][C@H]([C@H](O)CO)[C@@H]1O.[Na+].[Na+].[Na+]` (stereo partly drawn) [Sodium stibogluconate, sodium stibogluconate, reference compound] is 3.1-fold higher in “IC50 (concentration that decreased cell growth by 50 %)” value: 157.5 mg/L (≈ 333 µM) for the first, 490 mg/L for the second.

Same assay, conditions: Leishmania donovani, 72 h, read-out: IC50 (concentration that decreased cell growth by 50 %)

First: O=c1oc2ccccc2c(O)c1C(c1ccccc1)c1c(O)c2ccccc2oc1=O [3a, 3,3'-(Phenylmethylene)bis(4-hydroxy-2H-chromen-2-one)]
Second: O=c1oc2ccccc2c(O)c1C(c1ccc(Cl)cc1)c1c(O)c2ccccc2oc1=O [3b, 3,3'-((4-Chlorophenyl)methylene)bis(4-hydroxy-2H-chromen-2-one)]
The IC50 of the first is 2-fold lower: 155 mg/L (≈ 376 µM) for the first, 312 mg/L (≈ 699 µM) for the second.

`O=c1oc2ccccc2c(O)c1C(c1c(Cl)cccc1Cl)c1c(O)c2ccccc2oc1=O` [3c, 3,3'-((2,6-Dichlorophenyl)methylene)bis(4-hydroxy-2H-chromen-2-one)] and `O=c1oc2ccccc2c(O)c1C(c1ccc(F)cc1)c1c(O)c2ccccc2oc1=O` [3d, 3,3'-((4-Fluorophenyl)methylene)bis(4-hydroxy-2H-chromen-2-one)] are within 1.5-fold of each other in IC50: 320 mg/L (≈ 665 µM) for the first, 295 mg/L (≈ 685 µM) for the second.

`COc1ccc(C(c2c(O)c3ccccc3oc2=O)c2c(O)c3ccccc3oc2=O)cc1` [3e, 3,3'-((4-Methoxyphenyl)methylene)bis(4-hydroxy-2H-chromen-2-one)] and `CN(C)c1ccc(C(c2c(O)c3ccccc3oc2=O)c2c(O)c3ccccc3oc2=O)cc1` [3l, 3,3'-((4-(Dimethylamino)phenyl)methylene)bis(4-hydroxy-2H-chromen-2-one)] are within 1.5-fold of each other in IC50: 218 mg/L (≈ 492 µM) for the first, 150 mg/L (≈ 329 µM) for the second.

`COc1ccc(C(c2c(O)c3ccccc3oc2=O)c2c(O)c3ccccc3oc2=O)cc1OC` [3f, 3,3'-((3,4-Dimethoxyphenyl)methylene)-bis(4-hydroxy-2H-chromen-2-one)] and `COc1cc(C(c2c(O)c3ccccc3oc2=O)c2c(O)c3ccccc3oc2=O)ccc1O` [3j, 3,3'-((4-Hydroxy-3-methoxyphenyl)methylene)bis(4-hydroxy-2H-chromen-2-one)] are within 1.5-fold of each other in IC50: 275 mg/L (≈ 582 µM) for the first, 198 mg/L (≈ 431 µM) for the second.

`COc1ccc(OC)c(C(c2c(O)c3ccccc3oc2=O)c2c(O)c3ccccc3oc2=O)c1` [3h, 3,3'-((2,5-Dimethoxyphenyl)methylene)bis(4-hydroxy-2H-chromen-2-one)] and `COc1cc(C(c2c(O)c3ccccc3oc2=O)c2c(O)c3ccccc3oc2=O)cc(OC)c1OC` [3i, 3,3'-((3,4,5-Trimethoxyphenyl)methylene)bis(4-hydroxy-2H-chromen-2-one)] are within 1.5-fold of each other in IC50: 198 mg/L (≈ 418 µM) for the first, 262 mg/L (≈ 522 µM) for the second.

In the case of `N#Cc1ccc(C(c2c(O)c3ccccc3oc2=O)c2c(O)c3ccccc3oc2=O)cc1` [3k, 3,3'-((4-Cyanophenyl)methylene)bis(4-hydroxy-2H-chromen-2-one)], the IC50 is reported as 225 mg/L (≈ 514 µM).

Same assay, conditions: Leishmania donovani; L. donovani promastigotes, 72 h at 22 °C, modified MTT, graphic interpolation; read-out: IC50 (concentration that decreased cell growth by 50 %)

For `N=C(N)c1ccc(OCCCCCOc2ccc(C(=N)N)cc2)cc1` [Pentamidine, pentamidine, reference compound], the IC50 was 5.5 mg/L (≈ 16.2 µM).
